Test results reported in US20120308590A1, “IMP-3 OLIGOPEPTIDES AND VACCINES INCLUDING THE SAME” (OncoTherapy Science, Inc., priority 2009, published 2012).
Residues, ends and D or L forms follow the SMILES beside them.

Experiments:
Assay type in all cases: cell-based, human
[1] = system: A549 (IMP-3+, HLA-A2-); experiment: 51Cr release assay of peptide-induced CTLs against cancer cell line; conditions: for cytotoxicity: CTLs from lung cancer patient 14 (SEQ ID NOs: 3 and 5) and patient 4 (SEQ ID NO: 6) (FIG. 5B)
Experimental: (§1) The expression of IMP-3 was determined by reverse transcription-polymerase chain reaction analysis. […] The DCs were pulsed with 20 micro-g/mL of the candidate peptides in the presence of 4 micro-g/mL beta2-microglobulin (Sigma-Aldrich, St. Louis, Mo., USA) for 2 hours at 37 degrees C. in AIM-V (Invitrogen Japan, Tokyo, Japan) containing 2% heat-inactivated autologous plasma. The cells were then irradiated (40 Gy) and incubated with the CD8^+ T cells. […] After 2 days, these cultures were supplemented with human recombinant IL-2 (PeproTech, Rocky Hill, N.J., USA) to a final concentration of 20 IU/mL. Two additional weekly stimulations with peptide-loaded autologous DCs, using the same procedure, were carried out on days 7 and 14. Six days after the last stimulation, the antigen-specific responses of the induced CTLs were investigated by IFN-gamma ELISPOT assay and ^51Cr release assay. […] For ^51Cr release assay, CTLs were co-cultured with peptide-pulsed T2 cells or cancer cells as a target cells (5×10^3/well) at the indicated effector/target ratio and a standard ^51Cr release assay was done as described previously (Komori H et al., Clin Cancer Res. 2006 May 1; 12 (9):2689-97).

[2] = system: MCF7 (IMP-3-, HLA-A2+); experiment: as above
Experimental: as §1

[3] = system: SKHep1; experiment: as above; conditions: CTL lines generated from the healthy donors (FIG. 5D)
Experimental: as §1

[4] = system: PANC-1 (IMP-3+, HLA-A2+); experiment: as above
Experimental: as §1

[5] = system: SW620; experiment: as above; conditions: CTL lines generated from the healthy donors (FIG. 5D)
Experimental: as §1

[6] = system: MCF7/IMP-3 (MCF7 cells transfected with IMP-3 gene); experiment: 51Cr release assay of peptide-induced CTLs against transfected cell line; conditions: CTL lines generated from the healthy donors (FIG. 5C)
Experimental: as §1

[7] = system: T2 cells pulsed with cognate peptides; experiment: 51Cr release assay of peptide-induced CTLs against peptide-pulsed T2 cells
Experimental: The DCs were pulsed with 20 micro-g/mL of the candidate peptides in the presence of 4 micro-g/mL beta2-microglobulin (Sigma-Aldrich, St. Louis, Mo., USA) for 2 hours at 37 degrees C. in AIM-V (Invitrogen Japan, Tokyo, Japan) containing 2% heat-inactivated autologous plasma. The cells were then irradiated (40 Gy) and incubated with the CD8^+ T cells. […] After 2 days, these cultures were supplemented with human recombinant IL-2 (PeproTech, Rocky Hill, N.J., USA) to a final concentration of 20 IU/mL. Two additional weekly stimulations with peptide-loaded autologous DCs, using the same procedure, were carried out on days 7 and 14. Six days after the last stimulation, the antigen-specific responses of the induced CTLs were investigated by IFN-gamma ELISPOT assay and ^51Cr release assay. […] For ^51Cr release assay, CTLs were co-cultured with peptide-pulsed T2 cells or cancer cells as a target cells (5×10^3/well) at the indicated effector/target ratio and a standard ^51Cr release assay was done as described previously (Komori H et al., Clin Cancer Res. 2006 May 1; 12 (9):2689-97).

[8] = system: CD107a on the cell surface of CTLs; experiment: CD107a exposure on the cell surface of CTLs (FACS); conditions: CTLs specific to IMP-3-552-560 stimulated with the named peptide at 1 microgram/ml for 5 hours; mouse IgG staining 0.7%
Experimental: The exposure of CD107a on the cell surface of the CTLs after antigen stimulation was detected by anti-CD107a antibody. […] These CTLs were cultured for 5 hours at 37 degrees C. and were subsequently stained with PE conjugated anti-human CD8 mAb. All peptides were used at a final concentration of 1 microgram/ml. Events shown are gated for CD8^+ T cells.

[9] = CTL lines generated from the healthy donors (FIG. 5D)
[10] = CTLs induced from PBMCs of healthy donor 2 (FIG. 5A)
[11] = CTL lines generated from the healthy donors (FIG. 5C)
[12] = CTLs induced from PBMCs of healthy donors, not to T2 pulsed with irrelevant HIV-A2 peptide (FIG. 3B)
[13] = CTLs from lung cancer patient 14 (SEQ ID NOs: 3 and 5) and patient 4 (SEQ ID NO: 6) (FIG. 5B)

Molecule: CC(C)C[C@H](NC(=O)[C@H](CC(C)C)NC(=O)[C@@H](N)CCCNC(=N)N)C(=O)N[C@H](C(=O)N1CCC[C@H]1C(=O)N[C@H](C(=O)N[C@@H](CCC(N)=O)C(=O)N[C@@H](Cc1ccccc1)C(=O)N[C@H](C(=O)O)C(C)C)[C@@H](C)O)C(C)C [SEQ ID NO: 1, RLLVPTQFV] (H-RLLVPTQFV-OH)
- cytotoxic activity [1, 9]: not against
- cytotoxic activity [1, 10]: no cytotoxic activity
- cytotoxicity [2, 11]: not against
- cytotoxic activity [2, 9]: not against
- cytotoxic activity [2, 10]: no cytotoxic activity
- cytotoxic activity [3]: exhibited cytotoxic activity
- cytotoxic activity [4, 10]: showed cytotoxic activity
- cytotoxic activity [5]: exhibited cytotoxic activity
- cytotoxicity [6]: exhibited cytotoxicity
- cytotoxic activity [7, 12]: exhibited cytotoxic activity

Molecule: CC[C@H](C)[C@H](NC(=O)[C@@H](N)CCCCN)C(=O)N1CCC[C@H]1C(=O)N[C@H](C(=O)N[C@@H](CO)C(=O)NCC(=O)N1CCC[C@H]1C(=O)N[C@@H](Cc1ccccc1)C(=O)N[C@@H](CC(C)C)C(=O)O)C(C)C [SEQ ID NO: 5, KIPVSGPFL] (H-KIPVSGPFL-OH)
- cytotoxicity [1]: without showing cytotoxicity
- cytotoxic activity [1, 10]: no cytotoxic activity
- cytotoxicity [2, 13]: without showing cytotoxicity
- cytotoxic activity [2, 10]: no cytotoxic activity
- cytotoxic activity [4, 13]: showed cytotoxic activity
- cytotoxic activity [4, 10]: showed cytotoxic activity
- cytotoxic activity ([7]; CTLs from PBMCs of lung cancer patient 3, no activity to T2 pulsed with HIV peptide (FIG. 4B)): showed cytotoxic activity

Molecule: SLYNTYATL [HIV peptide]
- CD8+/CD107a+ cells of all CD8+ cells [8]: 1.5%

Molecule: CC[C@H](C)[C@H](NC(=O)[C@H](CCC(=O)O)NC(=O)[C@H](CCC(N)=O)NC(=O)[C@@H](NC(=O)[C@@H](N)CCCCN)[C@@H](C)CC)C(=O)N[C@@H](CC(C)C)C(=O)N[C@H](C(=O)N[C@@H](CCC(N)=O)C(=O)N[C@H](C(=O)O)C(C)C)[C@@H](C)O [SEQ ID NO: 3, KIQEILTQV] (H-KIQEILTQV-OH)
- cytotoxicity [1]: without showing cytotoxicity
- cytotoxic activity [1, 10]: no cytotoxic activity
- cytotoxicity [2, 13]: without showing cytotoxicity
- cytotoxic activity [2, 10]: no cytotoxic activity
- cytotoxic activity [4, 13]: showed cytotoxic activity
- cytotoxic activity [4, 10]: showed cytotoxic activity
- cytotoxic activity ([7]; CTLs from PBMCs of lung cancer patient 4, no activity to T2 pulsed with HIV peptide (FIG. 4B)): showed cytotoxic activity

Molecule: CC(C)C[C@H](NC(=O)[C@@H](N)CC(N)=O)C(=O)N[C@@H](CO)C(=O)N[C@@H](CO)C(=O)N[C@@H](C)C(=O)N[C@@H](CCC(=O)O)C(=O)N[C@H](C(=O)N[C@H](C(=O)N[C@H](C(=O)O)C(C)C)C(C)C)C(C)C [SEQ ID NO: 6, NLSSAEVVV] (H-NLSSAEVVV-OH)
- cytotoxic activity [1, 9]: not against
- cytotoxicity [1]: without showing cytotoxicity
- cytotoxic activity [1, 10]: no cytotoxic activity
- cytotoxicity [2, 11]: not against
- cytotoxic activity [2, 9]: not against
- cytotoxicity [2, 13]: without showing cytotoxicity
- cytotoxic activity [2, 10]: no cytotoxic activity
- cytotoxic activity [3]: exhibited cytotoxic activity
- cytotoxic activity [4, 13]: showed cytotoxic activity
- cytotoxic activity [4, 10]: showed cytotoxic activity
- cytotoxic activity [5]: exhibited cytotoxic activity
- cytotoxicity [6]: exhibited cytotoxicity
- cytotoxic activity [7, 12]: exhibited cytotoxic activity
